Consider 9 compounds from patent US20230242585A1, “IMMUNOMODULATORS” (Bristol-Myers Squibb Company, priority 2020, published 2023).

Broadly, the IC50 is the concentration that inhibits the measured activity by half. Low readings indicate inhibition by little substance, high ones a need for much substance.

Starred links: 1 amine or outer side, 2 acyl side, 3 side chain; linkers in the order of their positions; H or OH if unused. Positions of bridges follow the written chain, without caps; N, C: chain ends. Non-standard residues stand in square brackets, D forms with d. Residues, ends and D or L forms follow the SMILES beside them. X49 = O=C([C@H](CNC[C@@H](O)[C@H](O)[C@@H](O)[C@@H](O)[C@H](O)CO)N[*:1])[*:2]; X41 = O=C([C@H](CCNC1[C@@H](O)[C@@H](O)[C@@H](O)[C@H](O)[C@H]1O)N[*:1])[*:2]; X40 = O=C([C@H](CNC1[C@@H](O)[C@@H](O)[C@@H](O)[C@H](O)[C@H]1O)N[*:1])[*:2]; X44 = O=C([C@H](CCNC[C@@H](O)[C@H](O)[C@@H](O)[C@@H](O)CO)N[*:1])[*:2]; X43 = O=C([C@H](CNC[C@@H](O)[C@H](O)[C@@H](O)[C@@H](O)CO)N[*:1])[*:2]; X11 = O=C([C@H](CNC[C@H](O)[C@@H](O)[C@@H](O)[C@H](O)CO)N[*:1])[*:2]; X59 = O=C([C@H](CCNC[C@H](O)[C@@H](O)[C@H](O)[C@H](O)CO)N[*:1])[*:2]; X3 = O=C([C@H](CNC[C@@H](O)[C@@H](O)[C@H](O)[C@H](O)CO)N[*:1])[*:2]; X58 = O=C([C@H](CNC[C@H](O)[C@@H](O)[C@H](O)[C@H](O)CO)N[*:1])[*:2]; X46 = CCn1c2ccccc2c2cc(CNCC[C@H](N[*:1])C(=O)[*:2])ccc21; Trp(1-CH2COOH) = N[C@@H](Cc1cn(CC(=O)O)c2ccccc12)C(=O)O; X45 = CCn1c2ccccc2c2cc(CNC[C@H](N[*:1])C(=O)[*:2])ccc21; X36 = COc1cc2cccc(OC)c2cc1CNC[C@H](N[*:1])C(=O)[*:2]; Hyp = O=C(O)[C@@H]1C[C@@H](O)CN1; NMeNle = CCCC[C@H](NC)C(=O)O; NMeA = CN[C@@H](C)C(=O)O; Dab = NCC[C@H](N)C(=O)O

The assay deals with T1, PD-1/PD-L1 (Homo sapiens, UniProt Q9NZQ7).
T1 construct: TVMV protease site (linker) (C); made in house; host or cells: HEK293T cells
T1 sequence (Q9NZQ7 18-239): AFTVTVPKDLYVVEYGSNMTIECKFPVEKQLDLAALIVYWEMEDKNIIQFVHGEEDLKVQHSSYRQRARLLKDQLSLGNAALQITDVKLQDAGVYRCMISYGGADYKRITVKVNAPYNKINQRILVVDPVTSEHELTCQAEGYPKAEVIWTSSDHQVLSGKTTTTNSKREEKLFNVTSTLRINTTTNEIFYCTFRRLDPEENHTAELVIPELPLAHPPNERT
Briefly: PD-1/PD-L1 Homogenous Time-Resolved Fluorescence (HTRF) binding assay. The conditions noted are these: PD-L1-His 10 nM, PD-1-Ig 20 nM. The source says: The ability of the compounds of formula (I) to bind to PD-L1 was investigated using a PD-1/PD-L1 Homogenous Time-Resolved Fluorescence (HTRF) binding assay.
The interaction of PD-1 and PD-L1 can be assessed using soluble, purified preparations of the extracellular domains of the two proteins. The PD-1 and PD-L1 protein extracellular domains were expressed as fusion proteins with detection tags, for PD-1, the tag was the Fc portion of Immunoglobulin (PD-1-Ig) and for PD-L1 it was the 6 histidine motif (PD-L1-His). All binding studies were performed in an HTRF assay buffer consisting of dPBS supplemented with 0.1% […] bovine serum albumin and 0.05% (v/v) Tween-20. For the h/PD-L1-His binding assay, inhibitors were pre-incubated with PD-L1-His (10 nM final) for 15 m in 4 µl of assay buffer, followed by addition of PD-1-Ig (20 nM final) in 1 µl of assay buffer and further incubation for 15 m. HTRF detection was achieved using europium crypate-labeled anti-Ig (1 nM final) and allophycocyanin (APC) labeled anti-His (20 nM final). Antibodies were diluted in HTRF detection buffer and 5 µl was dispensed on top of the binding reaction. The reaction mixture was allowed to equilibrate for 30 minutes and the resulting signal (665 nm/620 nm ratio) was obtained using an EnVision fluorometer. Additional binding assays were established between the human proteins PD-1-Ig/PD-L2-His (20 & 5 nM, respectively) and CD80-His/PD-L1-Ig (100 & 10 nM, respectively).
Recombinant Proteins: Human PD-1 (25-167) with a C-terminal human Fc domain of immunoglobulin G (Ig) epitope tag [hPD-1 (25-167)-3S-IG] and human PD-L1 (18-239) with a C-terminal His epitope tag [hPD-L1(18-239)-TVMV-His] were expressed in HEK293T cells and purified sequentially by ProteinA affinity chromatography and size exclusion chromatography. Human PD-L2-His and CD80-His was obtained through commercial sources.
Table 1 lists the IC50 values for representative examples of this disclosure measured in the PD-1/PD-L1 Homogenous Time-Resolved Fluorescence (HTRF) binding assay.
With `CCCC[C@H]1C(=O)N(C)[C@@H](CCCC)C(=O)N[C@@H](CC(C)C)C(=O)N[C@H](C(=O)NCC(N)=O)CSCC(=O)N[C@@H](Cc2ccc(O)cc2)C(=O)N(C)[C@@H](C)C(=O)N[C@@H](CC(N)=O)C(=O)N2CCC[C@H]2C(=O)N[C@@H](CNC[C@@H](O)[C@H](O)[C@@H](O)[C@@H](O)[C@H](O)CO)C(=O)N[C@@H](CC(C)C)C(=O)N2C[C@H](O)C[C@H]2C(=O)N[C@@H](Cc2c[nH]c3ccccc23)C(=O)N[C@@H](CCN)C(=O)N[C@@H](Cc2cn(CC(=O)O)c3ccccc23)C(=O)N1C` [Example 2019] ({CH2CO}-Y[NMeA]NP[X49]L[Hyp]W[Dab][Trp(1-CH2COOH)][NMeNle][NMeNle]LCG-NH2; thioether N-14), the IC50 was 8.1 nM.

In turn, `CCCC[C@H]1C(=O)N(C)[C@@H](CCCC)C(=O)N[C@@H](CC(C)C)C(=O)N[C@H](C(=O)NCC(N)=O)CSCC(=O)N[C@@H](Cc2ccc(O)cc2)C(=O)N(C)[C@@H](C)C(=O)N[C@@H](CC(N)=O)C(=O)N2CCC[C@H]2C(=O)N[C@@H](CNC[C@H](O)[C@@H](O)[C@@H](O)[C@H](O)CO)C(=O)N[C@@H](CC(C)C)C(=O)N2C[C@H](O)C[C@H]2C(=O)N[C@@H](Cc2c[nH]c3ccccc23)C(=O)N[C@@H](CCN)C(=O)N[C@@H](Cc2cn(CC(=O)O)c3ccccc23)C(=O)N1C` [Example 2017] ({CH2CO}-Y[NMeA]NP[X11]L[Hyp]W[Dab][Trp(1-CH2COOH)][NMeNle][NMeNle]LCG-NH2; thioether N-14) registered an IC50 of 7.2 nM. As for `CCCC[C@H]1C(=O)N(C)[C@@H](CCCC)C(=O)N[C@@H](CC(C)C)C(=O)N[C@H](C(=O)NCC(N)=O)CSCC(=O)N[C@@H](Cc2ccc(O)cc2)C(=O)N(C)[C@@H](C)C(=O)N[C@@H](CC(N)=O)C(=O)N2CCC[C@H]2C(=O)N[C@@H](CNC[C@@H](O)[C@H](O)[C@@H](O)[C@@H](O)CO)C(=O)N[C@@H](CC(C)C)C(=O)N2C[C@H](O)C[C@H]2C(=O)N[C@@H](Cc2c[nH]c3ccccc23)C(=O)N[C@@H](CCNC[C@@H](O)[C@H](O)[C@@H](O)[C@@H](O)CO)C(=O)N[C@@H](Cc2cn(CC(=O)O)c3ccccc23)C(=O)N1C` [Example 2034] ({CH2CO}-Y[NMeA]NP[X43]L[Hyp]W[X44][Trp(1-CH2COOH)][NMeNle][NMeNle]LCG-NH2; thioether N-14), the figure is 2.7 nM; as for `CCCC[C@H]1C(=O)N(C)[C@@H](CCCC)C(=O)N[C@@H](CC(C)C)C(=O)N[C@H](C(=O)NCC(N)=O)CSCC(=O)N[C@@H](Cc2ccc(O)cc2)C(=O)N(C)[C@@H](C)C(=O)N[C@@H](CC(N)=O)C(=O)N2CCC[C@H]2C(=O)N[C@@H](CNC[C@@H](O)[C@@H](O)[C@H](O)[C@H](O)CO)C(=O)N[C@@H](CC(C)C)C(=O)N2C[C@H](O)C[C@H]2C(=O)N[C@@H](Cc2c[nH]c3ccccc23)C(=O)N[C@@H](CCN)C(=O)N[C@@H](Cc2cn(CC(=O)O)c3ccccc23)C(=O)N1C` [Example 2024] ({CH2CO}-Y[NMeA]NP[X3]L[Hyp]W[Dab][Trp(1-CH2COOH)][NMeNle][NMeNle]LCG-NH2; thioether N-14), 1.6 nM.

`CCCC[C@H]1C(=O)N(C)[C@@H](CCCC)C(=O)N[C@@H](CC(C)C)C(=O)N[C@H](C(=O)NCC(N)=O)CSCC(=O)N[C@@H](Cc2ccc(O)cc2)C(=O)N(C)[C@@H](C)C(=O)N[C@@H](CC(N)=O)C(=O)N2CCC[C@H]2C(=O)N[C@@H](CNCc2cc3c(OC)cccc3cc2OC)C(=O)N[C@@H](CC(C)C)C(=O)N2C[C@H](O)C[C@H]2C(=O)N[C@@H](Cc2c[nH]c3ccccc23)C(=O)N[C@@H](CCN)C(=O)N[C@@H](Cc2cn(CC(=O)O)c3ccccc23)C(=O)N1C` [Example 1016] ({CH2CO}-Y[NMeA]NP[X36]L[Hyp]W[Dab][Trp(1-CH2COOH)][NMeNle][NMeNle]LCG-NH2; thioether N-14) gave an IC50 of 6.4 nM.

For `CCCC[C@H]1C(=O)N(C)[C@@H](CCCC)C(=O)N[C@@H](CC(C)C)C(=O)N[C@H](C(=O)NCC(N)=O)CSCC(=O)N[C@@H](Cc2ccc(O)cc2)C(=O)N(C)[C@@H](C)C(=O)N[C@@H](CC(N)=O)C(=O)N2CCC[C@H]2C(=O)N[C@@H](CNC[C@H](O)[C@@H](O)[C@H](O)[C@H](O)CO)C(=O)N[C@@H](CC(C)C)C(=O)N2C[C@H](O)C[C@H]2C(=O)N[C@@H](Cc2c[nH]c3ccccc23)C(=O)N[C@@H](CCNC[C@H](O)[C@@H](O)[C@H](O)[C@H](O)CO)C(=O)N[C@@H](Cc2cn(CC(=O)O)c3ccccc23)C(=O)N1C` [Example 2032] ({CH2CO}-Y[NMeA]NP[X58]L[Hyp]W[X59][Trp(1-CH2COOH)][NMeNle][NMeNle]LCG-NH2; thioether N-14), the IC50 was found to be 5.3 nM.

The compound `CCCC[C@H]1C(=O)N(C)[C@@H](CCCC)C(=O)N[C@@H](CC(C)C)C(=O)N[C@H](C(=O)NCC(N)=O)CSCC(=O)N[C@@H](Cc2ccc(O)cc2)C(=O)N(C)[C@@H](C)C(=O)N[C@@H](CC(N)=O)C(=O)N2CCC[C@H]2C(=O)N[C@@H](CNC[C@@H](O)[C@H](O)[C@@H](O)[C@@H](O)CO)C(=O)N[C@@H](CC(C)C)C(=O)N2C[C@H](O)C[C@H]2C(=O)N[C@@H](Cc2c[nH]c3ccccc23)C(=O)N[C@@H](CCN)C(=O)N[C@@H](Cc2cn(CC(=O)O)c3ccccc23)C(=O)N1C` [Example 2016] ({CH2CO}-Y[NMeA]NP[X43]L[Hyp]W[Dab][Trp(1-CH2COOH)][NMeNle][NMeNle]LCG-NH2; thioether N-14) came in with an IC50 of 2 nM. As for `CCCC[C@H]1C(=O)N(C)[C@@H](CCCC)C(=O)N[C@@H](CC(C)C)C(=O)N[C@H](C(=O)NCC(N)=O)CSCC(=O)N[C@@H](Cc2ccc(O)cc2)C(=O)N(C)[C@@H](C)C(=O)N[C@@H](CC(N)=O)C(=O)N2CCC[C@H]2C(=O)N[C@@H](CNCc2ccc3c(c2)c2ccccc2n3CC)C(=O)N[C@@H](CC(C)C)C(=O)N2C[C@H](O)C[C@H]2C(=O)N[C@@H](Cc2c[nH]c3ccccc23)C(=O)N[C@@H](CCNCc2ccc3c(c2)c2ccccc2n3CC)C(=O)N[C@@H](Cc2cn(CC(=O)O)c3ccccc23)C(=O)N1C` [Example 1009] ({CH2CO}-Y[NMeA]NP[X45]L[Hyp]W[X46][Trp(1-CH2COOH)][NMeNle][NMeNle]LCG-NH2; thioether N-14), the figure is 9.8 nM. As for `CCCC[C@H]1C(=O)N(C)[C@@H](CCCC)C(=O)N[C@@H](CC(C)C)C(=O)N[C@H](C(=O)NCC(N)=O)CSCC(=O)N[C@@H](Cc2ccc(O)cc2)C(=O)N(C)[C@@H](C)C(=O)N[C@@H](CC(N)=O)C(=O)N2CCC[C@H]2C(=O)N[C@@H](CNC2[C@@H](O)[C@@H](O)[C@@H](O)[C@H](O)[C@H]2O)C(=O)N[C@@H](CC(C)C)C(=O)N2C[C@H](O)C[C@H]2C(=O)N[C@@H](Cc2c[nH]c3ccccc23)C(=O)N[C@@H](CCNC2[C@@H](O)[C@@H](O)[C@@H](O)[C@H](O)[C@H]2O)C(=O)N[C@@H](Cc2cn(CC(=O)O)c3ccccc23)C(=O)N1C` (stereo partly drawn) [Example 2033] ({CH2CO}-Y[NMeA]NP[X40]L[Hyp]W[X41][Trp(1-CH2COOH)][NMeNle][NMeNle]LCG-NH2; thioether N-14), the figure is 8.8 nM.
